Measured values published in ChEMBL document CHEMBL1201862, “PubChem BioAssay data set” (2004).
The source made the active and inactive calls.

How the values were obtained:
[1] = target: Luciferin 4-monooxygenase (Photinus pyralis, UniProt P08659); experiment: inhibition of purified Photinus pyralis luciferase – biochemical, luminescence, dose response (AID 1891)
[2] = Luminescence Cell-Based Dose Confirmation HTS to Identify Inhibitors of Platelet Dense Granule Release. [Related pubchem assays: 1663 (Primary HTS), 1678 (Summary of Project)]; type: functional
[3] = P. falciparum Dd2 growth inhibitors, dose response, SYBR Green, cherry-picked samples (AID 1159567); type: functional, cell-based
[4] = toxicity to human hepatoma HepG2 cells – cell-based, cherry-picked samples, cytotoxicity control, dose response (AID 1159577); type: functional
[5] = target: Glyceraldehyde-3-phosphate dehydrogenase (Homo sapiens, UniProt P04406)
Sequence of Glyceraldehyde-3-phosphate dehydrogenase (P04406 whole entry): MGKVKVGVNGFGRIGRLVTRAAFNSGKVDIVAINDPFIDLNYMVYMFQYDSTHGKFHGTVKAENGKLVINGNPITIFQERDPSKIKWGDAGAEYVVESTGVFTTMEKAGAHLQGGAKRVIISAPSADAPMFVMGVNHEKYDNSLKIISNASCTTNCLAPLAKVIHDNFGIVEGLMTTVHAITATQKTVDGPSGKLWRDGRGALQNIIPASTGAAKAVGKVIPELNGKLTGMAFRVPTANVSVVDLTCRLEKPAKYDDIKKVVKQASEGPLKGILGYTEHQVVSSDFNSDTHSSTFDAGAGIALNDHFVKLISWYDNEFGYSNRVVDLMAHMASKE

Genome polyprotein = Genome polyprotein (dengue virus type 2, UniProt P29990); experiment: flavivirus cap methylation enzyme inhibition – biochemical, confirmation dose response, primary screen (AID 588689); type: functional
Sequence of Genome polyprotein (P29990 2492-3391 limits assumed): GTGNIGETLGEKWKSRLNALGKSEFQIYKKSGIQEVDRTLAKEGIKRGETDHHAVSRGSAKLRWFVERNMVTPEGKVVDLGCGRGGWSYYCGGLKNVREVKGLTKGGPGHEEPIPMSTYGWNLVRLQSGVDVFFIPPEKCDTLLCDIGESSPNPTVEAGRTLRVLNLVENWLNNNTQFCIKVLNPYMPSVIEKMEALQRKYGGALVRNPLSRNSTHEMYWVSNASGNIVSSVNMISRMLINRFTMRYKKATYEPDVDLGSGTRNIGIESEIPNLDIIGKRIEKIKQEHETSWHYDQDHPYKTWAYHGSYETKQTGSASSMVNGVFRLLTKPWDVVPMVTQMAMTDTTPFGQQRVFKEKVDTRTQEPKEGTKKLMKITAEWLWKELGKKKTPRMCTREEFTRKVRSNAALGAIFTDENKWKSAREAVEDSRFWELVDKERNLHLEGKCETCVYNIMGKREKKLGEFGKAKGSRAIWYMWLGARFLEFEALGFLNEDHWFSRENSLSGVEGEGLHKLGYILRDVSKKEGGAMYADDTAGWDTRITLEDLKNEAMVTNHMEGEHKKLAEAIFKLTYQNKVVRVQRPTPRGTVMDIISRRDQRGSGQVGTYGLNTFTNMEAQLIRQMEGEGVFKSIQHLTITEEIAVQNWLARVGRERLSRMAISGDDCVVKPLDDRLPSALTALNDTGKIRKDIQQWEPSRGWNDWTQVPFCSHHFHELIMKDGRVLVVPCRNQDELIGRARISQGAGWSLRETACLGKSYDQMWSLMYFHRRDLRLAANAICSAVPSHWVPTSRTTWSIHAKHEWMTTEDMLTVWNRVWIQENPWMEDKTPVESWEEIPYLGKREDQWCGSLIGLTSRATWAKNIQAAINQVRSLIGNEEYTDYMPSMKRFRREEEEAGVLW

[6] = target: T1, Replicative DNA helicase DnaB (Mycobacterium tuberculosis, UniProt P9WMR3); experiment: DnaB intein splicing inhibitors, dose response, biochemical, cell-free fluorescence (AID 449749); type: functional
T1 sequence (P9WMR3 whole entry): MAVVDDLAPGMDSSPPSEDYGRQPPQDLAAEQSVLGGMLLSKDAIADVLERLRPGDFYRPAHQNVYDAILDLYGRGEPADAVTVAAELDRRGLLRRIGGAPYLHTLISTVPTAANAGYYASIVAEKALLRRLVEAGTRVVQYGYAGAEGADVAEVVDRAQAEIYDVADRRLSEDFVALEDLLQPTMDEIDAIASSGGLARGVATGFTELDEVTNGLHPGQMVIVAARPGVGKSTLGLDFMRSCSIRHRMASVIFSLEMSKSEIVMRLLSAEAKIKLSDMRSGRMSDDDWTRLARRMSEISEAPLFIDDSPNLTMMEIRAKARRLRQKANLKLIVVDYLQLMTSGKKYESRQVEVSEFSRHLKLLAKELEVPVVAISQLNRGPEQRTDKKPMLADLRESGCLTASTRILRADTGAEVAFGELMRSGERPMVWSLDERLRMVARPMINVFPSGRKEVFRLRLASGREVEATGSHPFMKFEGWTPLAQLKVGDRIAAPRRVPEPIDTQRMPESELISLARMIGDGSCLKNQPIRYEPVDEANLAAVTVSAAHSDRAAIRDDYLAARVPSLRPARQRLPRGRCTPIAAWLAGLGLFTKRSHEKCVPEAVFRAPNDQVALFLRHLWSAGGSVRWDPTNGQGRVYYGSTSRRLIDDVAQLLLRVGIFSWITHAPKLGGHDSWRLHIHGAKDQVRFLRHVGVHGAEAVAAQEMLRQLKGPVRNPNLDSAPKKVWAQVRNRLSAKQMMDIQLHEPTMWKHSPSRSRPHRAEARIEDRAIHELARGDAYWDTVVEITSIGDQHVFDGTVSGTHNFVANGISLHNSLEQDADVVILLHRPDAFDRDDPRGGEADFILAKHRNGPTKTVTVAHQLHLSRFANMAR

[7] = target: Induced myeloid leukemia cell differentiation protein Mcl-1 (Homo sapiens, UniProt Q07820); type: functional
Sequence of Induced myeloid leukemia cell differentiation protein Mcl-1 (Q07820 whole entry, the tested form may be a part): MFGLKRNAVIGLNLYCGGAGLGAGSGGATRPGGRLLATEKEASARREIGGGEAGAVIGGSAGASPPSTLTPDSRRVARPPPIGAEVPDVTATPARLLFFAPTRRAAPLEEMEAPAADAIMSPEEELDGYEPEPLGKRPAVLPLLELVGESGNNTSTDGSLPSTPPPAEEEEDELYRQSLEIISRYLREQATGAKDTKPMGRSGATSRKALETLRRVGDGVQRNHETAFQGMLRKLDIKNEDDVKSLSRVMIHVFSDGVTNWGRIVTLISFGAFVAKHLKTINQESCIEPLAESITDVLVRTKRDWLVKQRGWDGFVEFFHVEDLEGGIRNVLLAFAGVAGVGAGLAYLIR

[8] = target: T2, Polyadenylate-binding protein 1 (Homo sapiens, UniProt P11940); experiment: MLLE domain peptide-binding blockers, IC50 – biochemical, fluorescence polarization, FITC-PAM2 peptide, dose response (AID 602259); type: functional; settings: read-out: IC50_Mean
T2 sequence (P11940 whole entry, the tested form may be a part): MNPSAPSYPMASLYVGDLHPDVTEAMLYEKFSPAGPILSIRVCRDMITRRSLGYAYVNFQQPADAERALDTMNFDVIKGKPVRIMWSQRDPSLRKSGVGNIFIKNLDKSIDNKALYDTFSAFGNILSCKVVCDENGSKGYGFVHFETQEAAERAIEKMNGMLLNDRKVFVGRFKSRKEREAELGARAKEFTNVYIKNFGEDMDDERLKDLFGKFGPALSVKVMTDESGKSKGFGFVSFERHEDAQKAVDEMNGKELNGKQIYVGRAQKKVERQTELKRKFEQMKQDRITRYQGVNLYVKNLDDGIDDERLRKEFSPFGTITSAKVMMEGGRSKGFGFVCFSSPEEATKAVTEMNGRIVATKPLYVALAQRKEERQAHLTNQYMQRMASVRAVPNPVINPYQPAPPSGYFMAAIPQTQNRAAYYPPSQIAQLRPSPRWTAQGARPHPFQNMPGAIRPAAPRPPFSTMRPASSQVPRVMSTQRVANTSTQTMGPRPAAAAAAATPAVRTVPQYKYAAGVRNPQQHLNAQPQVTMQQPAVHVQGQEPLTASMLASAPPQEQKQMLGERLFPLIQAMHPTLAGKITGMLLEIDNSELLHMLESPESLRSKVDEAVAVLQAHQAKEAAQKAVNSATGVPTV

Protein RecA = target: T3, Protein RecA (Mycobacterium tuberculosis, UniProt P9WHJ3); experiment: Fluorescence Cell-Free Homogeneous Dose Retest to Identify Inhibitors of RecA-Intein Splicing Activity. [Related pubchem assays (depositor defined):AID2097, AID2223, AID489010, AID492950]; type: functional
T3 sequence (P9WHJ3 whole entry): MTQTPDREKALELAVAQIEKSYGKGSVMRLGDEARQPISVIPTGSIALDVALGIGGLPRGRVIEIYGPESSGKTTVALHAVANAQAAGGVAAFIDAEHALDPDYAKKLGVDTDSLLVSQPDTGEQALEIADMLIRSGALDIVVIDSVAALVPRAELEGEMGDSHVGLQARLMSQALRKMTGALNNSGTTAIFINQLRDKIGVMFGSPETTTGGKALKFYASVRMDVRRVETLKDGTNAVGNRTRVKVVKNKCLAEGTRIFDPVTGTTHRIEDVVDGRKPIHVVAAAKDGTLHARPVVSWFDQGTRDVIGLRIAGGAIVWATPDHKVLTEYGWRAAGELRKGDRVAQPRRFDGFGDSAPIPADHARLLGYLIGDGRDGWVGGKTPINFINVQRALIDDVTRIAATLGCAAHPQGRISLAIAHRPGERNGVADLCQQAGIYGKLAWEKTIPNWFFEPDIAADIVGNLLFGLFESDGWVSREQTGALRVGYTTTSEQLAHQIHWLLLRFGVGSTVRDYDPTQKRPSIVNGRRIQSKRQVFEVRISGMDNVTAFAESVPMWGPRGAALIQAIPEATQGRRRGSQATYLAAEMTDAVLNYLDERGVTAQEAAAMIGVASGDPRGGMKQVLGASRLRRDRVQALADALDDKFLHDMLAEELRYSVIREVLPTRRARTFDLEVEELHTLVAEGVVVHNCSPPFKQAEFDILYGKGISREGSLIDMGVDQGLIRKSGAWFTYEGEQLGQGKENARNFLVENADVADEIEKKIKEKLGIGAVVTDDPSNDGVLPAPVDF

[9] = target: T2, Polyadenylate-binding protein 1; experiment: MLLE binding blockers, Cy5 peptide tracer – biochemical, fluorescence polarization, Cy5-PAM2 peptide, secondary, miRNA deadenylation inhibitor project, dose response (AID 602260); type: functional; settings: read-out: IC50_Mean
[10] = target: T4, Histone-lysine N-methyltransferase NSD2 (Homo sapiens, UniProt O96028); type: biochemical
T4 sequence (O96028 whole entry): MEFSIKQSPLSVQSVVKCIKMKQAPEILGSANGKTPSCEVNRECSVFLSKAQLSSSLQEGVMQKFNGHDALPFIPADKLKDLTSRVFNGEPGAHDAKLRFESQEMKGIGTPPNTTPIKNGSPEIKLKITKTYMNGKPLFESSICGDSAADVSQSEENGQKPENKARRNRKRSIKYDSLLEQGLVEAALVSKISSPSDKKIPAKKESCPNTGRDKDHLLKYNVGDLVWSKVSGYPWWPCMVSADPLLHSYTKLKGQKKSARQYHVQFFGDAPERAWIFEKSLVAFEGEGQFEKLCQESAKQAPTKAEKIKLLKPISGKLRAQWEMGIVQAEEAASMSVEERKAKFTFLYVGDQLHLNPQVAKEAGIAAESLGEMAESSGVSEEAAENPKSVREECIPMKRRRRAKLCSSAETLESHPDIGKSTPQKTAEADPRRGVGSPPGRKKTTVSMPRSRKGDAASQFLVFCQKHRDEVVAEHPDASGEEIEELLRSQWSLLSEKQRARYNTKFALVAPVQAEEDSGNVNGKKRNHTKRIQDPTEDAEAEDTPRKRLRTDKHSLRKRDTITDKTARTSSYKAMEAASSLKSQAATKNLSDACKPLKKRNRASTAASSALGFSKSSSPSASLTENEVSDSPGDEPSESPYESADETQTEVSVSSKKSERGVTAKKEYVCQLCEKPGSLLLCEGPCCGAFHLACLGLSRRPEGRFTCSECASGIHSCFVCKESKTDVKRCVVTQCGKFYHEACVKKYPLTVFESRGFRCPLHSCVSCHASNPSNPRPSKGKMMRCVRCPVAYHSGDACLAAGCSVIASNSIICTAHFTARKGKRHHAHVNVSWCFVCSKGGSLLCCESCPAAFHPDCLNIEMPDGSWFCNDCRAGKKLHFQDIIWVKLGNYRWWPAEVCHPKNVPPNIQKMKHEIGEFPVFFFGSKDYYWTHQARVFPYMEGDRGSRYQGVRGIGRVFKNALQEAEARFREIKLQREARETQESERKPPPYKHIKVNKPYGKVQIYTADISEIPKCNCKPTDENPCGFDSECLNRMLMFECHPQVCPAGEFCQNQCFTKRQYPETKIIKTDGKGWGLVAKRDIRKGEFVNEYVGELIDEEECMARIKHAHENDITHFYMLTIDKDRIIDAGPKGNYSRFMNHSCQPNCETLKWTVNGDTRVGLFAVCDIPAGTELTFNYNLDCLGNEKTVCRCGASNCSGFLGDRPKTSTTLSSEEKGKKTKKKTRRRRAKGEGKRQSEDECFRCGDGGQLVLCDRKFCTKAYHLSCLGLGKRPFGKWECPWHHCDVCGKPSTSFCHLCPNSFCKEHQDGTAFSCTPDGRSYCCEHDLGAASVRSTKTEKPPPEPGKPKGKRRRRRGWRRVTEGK

[11] = viability loss in HEK293 cells – cell-based, plate reader, cherry-picked samples, cytotoxicity control, dose response (AID 743446); type: functional
[12] = toxicity toward HepG2 liver cells – cell-based, plate reader, cherry-pick, antagonist series, cytotoxicity control, dose response (AID 743416); type: functional
[13] = Luminescence Cell-Based Dose Retest to Confirm Inhibitors of Cancer Stem Cells. [Related pubchem assays (depositor defined):AID2717, AID2721]; type: functional; settings: Homo sapiens
[14] = target: T5, Heat shock factor protein 1 (Mus musculus, UniProt P38532); experiment: decrease of HSF1-responsive luciferase luminescence – cell-based, NIH3T3, dose retest, confirmation (AID 2382); type: functional;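 further: NIH3T3 fibroblasts with HSF1-driven luciferase reporter stressed by proteasome inhibitor MG132; luminescence from HSF1-driven luciferase expression after 8 hours of MG132 stress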
T5 sequence (P38532 whole entry): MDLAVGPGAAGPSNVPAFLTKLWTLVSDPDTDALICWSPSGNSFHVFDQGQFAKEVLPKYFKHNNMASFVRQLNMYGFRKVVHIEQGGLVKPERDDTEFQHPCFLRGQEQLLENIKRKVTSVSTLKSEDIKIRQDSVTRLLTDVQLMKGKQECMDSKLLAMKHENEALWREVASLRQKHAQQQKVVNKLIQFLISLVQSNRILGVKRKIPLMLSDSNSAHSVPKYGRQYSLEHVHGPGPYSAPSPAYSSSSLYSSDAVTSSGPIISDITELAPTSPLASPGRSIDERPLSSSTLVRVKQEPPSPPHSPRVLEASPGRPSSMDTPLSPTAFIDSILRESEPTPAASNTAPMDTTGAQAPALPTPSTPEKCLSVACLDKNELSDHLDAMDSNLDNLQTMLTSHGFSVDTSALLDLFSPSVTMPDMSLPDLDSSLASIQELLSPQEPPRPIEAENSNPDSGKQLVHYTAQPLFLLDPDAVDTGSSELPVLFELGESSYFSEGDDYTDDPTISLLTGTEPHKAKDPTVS

HEK293 [15] = experiment: inhibition of NOD1-driven NF-kB reporter – cell-based, luminescence, uHTS, primary screen (AID 1578); type: functional; settings: Homo sapiens
HEK293 [16] = experiment: NOD2 signaling inhibitors in MDP-stimulated cells, cell-based, uHTS, luminescence (AID 2001); type: functional; settings: Homo sapiens
HEK293 [17] = experiment: cells; type: functional, cell-based; settings: Homo sapiens
[18] = loss of viability in HepG2 cells – cell-based, CellTiter-Glo, cherry-picked, cytotoxicity control for Shn3 inhibitor project, dose response (AID 624134); type: functional
[19] = non-specific 3'UTR reporter inhibition in Clone20-Shn3RL – cell-based, Renilla luciferase, cherry-picked, counter-screen for Shn3 inhibitor project, dose response (AID 624133); type: functional
HEK293 [20] = experiment: cells; type: functional, cell-based; settings: Homo sapiens; remark: listed apart in the source
[21] = reduction of Shn3 3'UTR-driven luciferase in osteoblasts – cell-based, Clone20 osteoblasts, firefly luciferase, cherry-picked, dose response (AID 624132); type: functional;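 further: firefly luciferase luminescence from reporter carrying the Shn3 3'UTR in osteoblasts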

Sequence of Luciferin 4-monooxygenase (P08659 whole entry): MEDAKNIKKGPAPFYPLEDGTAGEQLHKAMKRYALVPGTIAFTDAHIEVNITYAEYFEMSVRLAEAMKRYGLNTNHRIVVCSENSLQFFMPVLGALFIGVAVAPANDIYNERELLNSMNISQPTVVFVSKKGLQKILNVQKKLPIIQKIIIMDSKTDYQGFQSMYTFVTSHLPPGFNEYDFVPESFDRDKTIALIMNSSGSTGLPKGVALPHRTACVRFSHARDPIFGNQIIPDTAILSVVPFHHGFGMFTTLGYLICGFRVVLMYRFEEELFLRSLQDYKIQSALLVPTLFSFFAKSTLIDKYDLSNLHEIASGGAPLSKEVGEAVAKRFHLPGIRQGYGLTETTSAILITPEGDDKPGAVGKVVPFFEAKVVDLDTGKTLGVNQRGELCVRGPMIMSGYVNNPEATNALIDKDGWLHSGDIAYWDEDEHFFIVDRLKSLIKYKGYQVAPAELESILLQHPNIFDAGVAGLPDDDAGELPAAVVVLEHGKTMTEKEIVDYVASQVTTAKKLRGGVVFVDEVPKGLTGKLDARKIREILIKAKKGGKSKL

CC(NS(C)(=O)=O)C(c1cccs1)N1CCN(Cc2ccccc2)CC1 (configuration not stated)
EC50 [1]: > 112 µM (not active) | EC50 [2]: > 112 µM (not active)

C[C@H](CO)N1C[C@H](C)[C@@H](CN(C)Cc2ccc3c(c2)OCO3)Oc2ccc(NC(=O)Nc3ccc4c(c3)OCO4)cc2CC1=O
AC50 [3]: 4.28 µM (active) | AC50 [4]: > 42 µM (inactive)

Cc1ccc(NC(=O)COc2ccc(C(=O)NCCc3ccccc3)cc2)cc1
EC50 [1]: > 112 µM (not active) | EC50 [2]: > 112 µM (not active)

C[C@@H]1CN(C2=C(Cl)C(=O)N(c3ccc(Cl)nc3)C2=O)CCN1
IC50 [5]: > 50 µM (inconclusive)

CC(=O)c1cc(O)c2ccccc2c1O
IC50 (Genome polyprotein): 29.7 µM (active) | AC50 [6]: > 380 µM (inactive) | IC50 [7]: 5.99 µM (active) | IC50 [8]: > 66 µM (inactive) | EC50 (Protein RecA): 2.82 µM (active) | IC50 [9]: > 66 µM (inactive) | AC50 [10]: 10.6 µM (active)

O=S(=O)(Nc1ccc(O)c2ccccc12)c1ccc(OC(F)(F)F)cc1
AC50 [11]: 24.9 µM (active) | AC50 [6]: 0.26 µM (active) | EC50 (Protein RecA): 0.0666 µM (active) | AC50 [12]: > 52 µM (inactive) | AC50 [13]: 6.55 µM (active) | EC50 [14]: > 195 µM (not active)

Cc1cc(C=O)c(C)n1-c1ccc(N2CCCCC2)c([N+](=O)[O-])c1
AC50 [10]: > 20 µM (inactive)

Cc1cc2c(cc1C)NC(c1ccccn1)C1=C(O)CC(C)(C)CC1=N2 (configuration not stated)
EC50 [1]: > 112 µM (not active) | EC50 [2]: > 112 µM (not active)

CO[C@@H]1CN(C)C(=O)c2cc(NC(=O)c3ccc(Oc4ccccc4)cc3)ccc2OC[C@@H](C)NC[C@@H]1C
AC50 [4]: 20.7 µM (active)

CN(C)CCN(Cc1ccccc1)S(=O)(=O)c1ccc(-c2ccc(O)nn2)s1
EC50 [1]: > 112 µM (not active) | EC50 [2]: 6.77 µM (active)

O=C(c1cc(COc2c(F)cccc2F)on1)N1CCC(c2ccncc2)CC1
EC50 (HEK293 [15]): 2.64 µM (active) | IC50 (HEK293 [16]): 17.1 µM (inactive) | IC50 (HEK293 [17]): > 20 µM (inactive) | AC50 [18]: 6.75 µM (active) | AC50 [19]: 2.31 µM (active) | IC50 (HEK293 [20]): 9.14 µM (active) | AC50 [21]: 1.6 µM (active)

C[C@@H]1CN([C@@H](C)CO)C(=O)c2c(c3ccccc3n2C)-c2ccccc2CO[C@@H]1CN(C)Cc1cccc(C(F)(F)F)c1
AC50 [3]: 1.64 µM (active) | AC50 [4]: 14 µM (active)

COc1ccc(S(=O)(=O)N2CCCCN3[C@@H](CO)[C@@H](c4ccc(C#CCC(C)C)cc4)[C@@H]3C2)cc1
AC50 [3]: 1.63 µM (active) | AC50 [4]: 18.9 µM (active)
